Measured values from patent US9776979B2, “EBI2 modulators” (Sanford-Burnham Medical Research Institute, priority 2013, dated 2017).

Molecular target: EBI2 (Homo sapiens, UniProt P32249)
Assay: Cell-based luminescent assay (EBI2 modulation)
Details: not given
Description: Cell-Based Luminescent Assay
To assess EBI2 modulation, the compounds described herein were assayed in the following cell-based luminescent assay:
1) Plated 600 cells/well in 4 uL of assay media into columns 1-48 of a 1536-well assay plate, using a liquid dispenser.
2) Centrifuged plates at 1000 rpm for 1 minute and covered with lids.
3) Incubated overnight at 37° C., 100% relative humidity, 5% CO2.
1) Centrifuged compound plates containing compounds described herein at 500 rpm for 1 minute.
2) Added compounds into assay plate col 5-48 to final concentration 4-5 uM. Added matching amount of DMSO to positive and negative control wells in columns 1-4.
3) Dispensed 2 ul/well of assay media to columns 1-2 for the positive control wells.
4) Added 2 ul/well of 400 nM 7a,25-OHC (final assay concentration=80 nM) in assay media to columns 3-48 for the negative control and test compound wells.
5) Centrifuged plates at 1000 rpm for 1 minute and re-lid plates.
6) Incubated plates at 37° C., 100% relative humidity, 5% CO2 for 60 minutes.
7) Following 60 minute incubation, delivered 2.5 uL of Detection Reagent solution to each assay plate (Columns 1-48) using a liquid handler.
8) Centrifuged plates at 2000 rpm for 2 minutes and re-lid plates.
9) Incubated plates for 60 minutes at 25 degrees in the dark.
10) Read plates using the Viewlux, Envision or other suitable plate reader using a luminescence detection.
The experimental values were normalized by the difference between values from neutral and stimulator control wells in each plate. Then normalized data was corrected to remove systematic plate patterns due to artifacts such as dispensing tip issues etc.

EBI2, sequence (P32249 whole entry): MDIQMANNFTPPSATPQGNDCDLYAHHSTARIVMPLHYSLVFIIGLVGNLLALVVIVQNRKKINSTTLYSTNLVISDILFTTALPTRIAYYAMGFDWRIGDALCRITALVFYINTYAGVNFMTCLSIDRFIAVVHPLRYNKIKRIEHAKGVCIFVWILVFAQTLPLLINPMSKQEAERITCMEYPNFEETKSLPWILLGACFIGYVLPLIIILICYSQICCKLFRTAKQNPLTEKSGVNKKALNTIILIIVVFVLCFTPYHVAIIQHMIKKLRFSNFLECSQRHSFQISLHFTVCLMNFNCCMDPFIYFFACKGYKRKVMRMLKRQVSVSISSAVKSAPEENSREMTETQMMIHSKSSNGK

Compound | IC50 [nM]
Cc1ccc(CN2CCN(C(=O)/C=C/c3ccccc3)CC2)cc1 [Compound C260] | < 100

Same assay, conditions: cell-based luminescence; 7a,25-OHC final assay concentration 80 nM; 60 minutes incubation; read-out: IC50

IC50 [nM] | Compound
< 100 | 5-methylindol-2-yl 4-(phenylethyl)piperazinyl ketone [Compound C148]
< 100 | 3-(4-methylphenyl)-1-(4-{[4-(trifluoromethyl)phenyl]methyl}piperazinyl)prop-2-yn-1-one [Compound C346]
100 to 500 | O=C(Oc1ccccc1)N1CCN(C(=O)c2cc3cc(Cl)ccc3[nH]2)CC1 [Compound C416, phenyl 4-[(5-chloroindol-2-yl)carbonyl]piperazinecarboxylate]
< 100 | COc1ccc(-c2ccc3[nH]c(C(=O)N4CCN(C(c5ccccc5)c5ccccc5)CC4)cc3c2)cc1 [Compound C220, 4-(diphenylmethyl)piperazinyl 5-(4-methoxyphenyl)indol-2-yl ketone]
100 to 500 | NC(=O)c1ccc(C(=O)N2CCN(C(=O)c3cc4cc(Cl)ccc4[nH]3)CC2)cc1 [Compound C282, 4-({4-[(5-chloroindol-2-yl)carbonyl]piperazinyl}carbonyl)benzamide]
100 to 500 | O=C(c1ccc2nc(C(F)(F)F)[nH]c2c1)N1CCN(C(c2ccccc2)c2ccccc2)CC1 [Compound C299, 4-(diphenylmethyl)piperazinyl 2-(trifluoromethyl)benzimidazol-5-yl ketone]
500 to 5000 | O=C(c1cc[nH]c1)N1CCN(C(=O)c2cc3cc(Cl)ccc3[nH]2)CC1 [Compound C163, 5-chloroindol-2-yl 4-(pyrrol-3-ylcarbonyl)piperazinyl ketone]
< 100 | O=C(C#Cc1cccc(Cl)c1)N1CCN(C(=O)c2ccc(F)cc2C(F)(F)F)CC1 [Compound C157, 3-(3-chlorophenyl)-1-(4-{[4-fluoro-2-(trifluoromethyl)phenyl]carbonyl}piperazinyl)prop-2-yn-1-one]
< 100 | O=C(c1cc2sccc2[nH]1)N1CCN(C(c2ccccc2)c2ccccc2)CC1 [Compound C380, 4-(diphenylmethyl)piperazinyl thiopheno[2,3-d]pyrrol-5-yl ketone]
< 100 | O=C(c1cc2cc(C(F)(F)F)ccc2[nH]1)N1CCN(C(=O)c2ccc(Cl)cc2Cl)CC1 [Compound C246, 4-[(2,4-dichlorophenyl)carbonyl]piperazinyl 5-(trifluoromethyl)indol-2-yl ketone]
< 100 | 1-(4-{[4-fluoro-2-(trifluoromethyl)phenyl]carbonyl}piperazinyl)-3-[4-(trifluoromethyl)phenyl]prop-2-yn-1-one [Compound C325]
< 100 | O=C(C#Cc1ccc(Cl)cc1)N1CCN(Cc2ccc(F)cc2)CC1 [Compound C369, 3-(4-chlorophenyl)-1-{4-[(4-fluorophenyl)methyl]piperazinyl}prop-2-yn-1-one]
< 100 | 3-(4-bromophenyl)-1-{4-[(4-chlorophenyl)methyl]piperazinyl}prop-2-yn-1-one [Compound C342]
100 to 500 | Cn1c(C(=O)N2CCN(C(=O)OC(C)(C)C)CC2)cc2ccccc21 [Compound C286, tert-butyl 4-[(1-methylindol-2-yl)carbonyl]piperazinecarboxylate]
< 100 | Cc1ccc(NC2CCN(C(=O)c3cc4cc(Cl)ccc4[nH]3)CC2)cc1C [Compound C322, 4-[(3,4-dimethylphenyl)amino]piperidyl 5-chloroindol-2-yl ketone]
< 100 | COc1ccc(CN2CCN(C(=O)C#Cc3ccc(Br)cc3)CC2)cc1 [Compound C274, 3-(4-bromophenyl)-1-{4-[(4-methoxyphenyl)methyl]piperazinyl}prop-2-yn-1-one]
< 100 | O=C(/C=C/c1ccc(F)cc1)N1CCN(S(=O)(=O)c2ccccc2Br)CC1 [Compound C100, (2E)-1-{4-[(2-bromophenyl)sulfonyl]piperazinyl}-3-(4-fluorophenyl)prop-2-en-1-one]
< 100 | COc1ccc(C(=O)N2CCN(C(=O)C=Cc3ccc(Cl)c(Cl)c3)CC2)cc1 [Compound C11, 3-(3,4-dichlorophenyl)-1-{4-[(4-methoxyphenyl)carbonyl]piperazinyl}prop-2-en-1-one]
